# Test results: US20210392882A1, “METHODS AND COMPOSITIONS FOR IMPROVED INSECT REPELLENCY” (Board of Trustees of Michigan State University, priority 2020, published 2021)
# Tested on: sst-1 sensilla (sst-1A and sst-1B neurons)
# Experiment: Single sensillum recording (SSR) of antennal sst-1 sensilla
# Assay type: cell-based, Aedes aegypti
# Details: wild-type ROCK; pyrethrum at 10^−2
# Experimental: Single sensilla recording was conducted as described in Liu et al. J Insect Physiol 59, 1169-1177 (2013). Female mosquitoes 4 days after eclosion were anaesthetized (2-3 min on ice) and mounted on a microscope slide (76×26 mm). An antenna was fixed using a double-sided tape to a cover slip resting on a small ball of dental wax to facilitate manipulation. The cover slip was placed at an appropriate angle to the mosquito head. Once mounted, the specimen was placed under a microscope (Nikon SMA645, Japan) and the antenna viewed at a high magnification (1000×). Two tungsten microelectrodes were sharpened in 10% KNO2 at 2-10 V. The reference electrode, which was connected to ground, was inserted into the compound eye of the mosquito and the other was connected to the preamplifier (10×, Syntech, Kirchzarten, Germany) and inserted into the shaft of an olfactory sensillum to complete the electrical circuit to extracellularly record olfactory receptor neuron potentials (Den Otter et al., Journal of Insect Physiology 26, 465-472 (1980)). Controlled manipulation of the electrodes was performed using a micromanipulator (Burleigh PCS-6000, CA). The preamplifier was connected to an analog-to-digital signal converter (IDAC-4, Syntech, Germany), which in turn was connected to a computer for signal recording and visualization. The activity of co-located olfactory receptor neurons in each sensillum was assessed based on the differences in spike amplitude. The large spike amplitude was designated as cell A and the olfactory receptor neuron with the small spike amplitude was designated cell B (Ghaninia et al. Eur J Neurosci 26, 1611-1623 (2007)). Signals were recorded for 10 seconds starting 1 second before stimulation, and the action potentials were counted off-line over a 500-ms period before and after stimulation. The spontaneous firing rates observed in the preceding 500 milliseconds (ms) were subtracted from the total spike rates observed during the 500-ms stimulation, and counts were recorded in units of spikes/second.
# Eighteen compounds besides pyrethrum from different chemical classes were selected for functional classification of olfactory sensilla with various morphological shapes (Extended Data FIG. 2). Each compound was diluted in dimethyl sulfoxide (DMSO) to a stock solution with a concentration of 100 μg/μl. Subsequently, a series of 10-fold dilutions were made from each of the stock solutions for each compound tested. For each dilution, a 10 μl portion was dispersed onto a filter paper strip (4×10 mm), which was then inserted into a Pasteur pipette to create the stimulus cartridge. A sample containing the solvent alone served as control. The airflow across the antennae was maintained constant at a 20 ml/second throughout the experiment. Purified and humidified air was delivered to the preparation through a glass tube (10-mm inner diameter) perforated by a small hole 10 cm away from the end of the tube, into which the tip of the Pasteur pipette could be inserted. The stimulus was delivered to the sensilla by inserting the tip of the stimulus cartridge into this hole and diverting a portion of the air stream (0.5 l/min) to flow through the stimulus cartridge for 500 ms using a stimulus controller (Syntech, Germany). The distance between the end of the glass tube and the antennae was ≤1 cm. The number of spikes/second was obtained by averaging the results for each sensillum/compound combination.
# To identify which mosquito olfactory receptor neuron(s) responds to pyrethrum, single sensillum recordings (SSR) were performed of Ae. aegypti antennal olfactory sensilla in response to a panel of odorants (FIG. 2C-2L), most of which are plant-derived mosquito repellents, such as pyrethrum, (±)-citronellal, geranyl acetate and (−)-borneol. Three responsive sst sensilla were identified, sst1-3, and six responsive sbt sensilla, sbt1-6, based on their response profiles to the odorants in the panel (FIG. 2B, 2D-2L).
structure (smiles),measurement,value
"CC1(C)C2CCC1(C)C(O)C2 (single isomer, unassigned; (-)) [(−)-borneol]",response of sst-1A neuron,activates
